Results: US20140093459A1, “NOVEL COMPOUND” (DSM IP ASSETS B.V., priority 2009, published 2014)

How the values were obtained:
[1] = Solubility of BEMT in 1:1 (w/w) mixture C12-15 alkyl benzoate/PG-UVAB1 (dissolving, storage 1 month at RT); type: physicochemical
[2] = Comparative: solubility of BMDBM in 1:1 (w/w) mixture of C12-15 alkyl benzoate and a polymeric or solid UV-filter (HPLC after 1 month at RT)
Description: Where necessary the mixture was centrifuged in order to obtain a clear supernatant.

[3] = Solubility of BMDBM or BEMT in C12-15 alkyl benzoate (saturation, HPLC of supernatant); type: physicochemical
[4] = Reduction of solvent necessary to dissolve solid UV-filter; type: physicochemical

| re-crystallization on storage ([1]; 200 mg BEMT in 800 mg 1:1 C12-15 alkyl benzoate/PG-UVAB1, stored 1 month at RT) | solubility of BEMT in 1:1 (w/w) mixture of C12-15 alkyl benzoate/PG-UVAB1 ([1]; 200 mg BEMT in 800 mg of the mixture, 1 month at RT) | Solubility of BEMT in C12-15 alkyl benzoate/PG-UVAB1 1:1 ([1]; 1:1 mixture with PG-UVAB1) [wt.-%] | Δ solubility related to cosmetic solvent (BEMT) ([1]; 1:1 mixture with PG-UVAB1) | Δ solubility (BEMT) ([1]; 1:1 mixture with PG-UVAB1 versus C12-15 alkyl benzoate alone) | Increase of solubility of BEMT ([1]; BEMT, 1:1 mixture with PG-UVAB1 versus C12-15 alkyl benzoate alone) | Solubility of BMDBM in C12-15 alkyl benzoate/UV-filter 1:1 ([2]; 200 mg BMDBM with 1000 mg of 1:1 (w/w) mixture, supernatant HPLC after 1 month at RT) [wt.-%] | Δ solubility related to cosmetic solvent (BMDBM) ([2]; 1:1 mixture C12-15 alkyl benzoate/UV-filter) [wt.-%] | Δ solubility (BMDBM) ([2]; 1:1 mixture with UV-filter versus C12-15 alkyl benzoate alone) [wt.-%] | Solubility in C12-15 alkyl benzoate ([3]; C12-15 alkyl benzoate alone (summary table)) [wt.-%] | solubility in the cosmetic solvent C12-15 alkyl benzoate ([3]; C12-15 alkyl benzoate alone, saturation, HPLC of supernatant) [wt.-%] | amount of 1:1 (w/w) mixture of PG-UVAB1 and diisopropyl sebacate needed to dissolve 0.5 g BMDBM ([4]; 1:1 (w/w) PG-UVAB1/diisopropyl sebacate) [g] | amount of 1:1 (w/w) mixture of PG-UVAB2 and C12-15 alkyl benzoate necessary to dissolve 0.5 g BMDBM ([4]; 1:1 (w/w) PG-UVAB2/C12-15 alkyl benzoate) [g] | Molecule |
| --- | --- | --- | --- | --- | --- | --- | --- | --- | --- | --- | --- | --- | --- |
| no re-crystallization occurred | at least 20 wt.-% | 20 | +13.5 wt.-% | +7 wt.-% | +54% | 3 | −4 | −11 | 13 | 13 | – | – | CCCCC(CC)COc1ccc(-c2nc(-c3ccc(OC)cc3)nc(-c3ccc(OCC(CC)CCCC)cc3O)n2)c(O)c1 (stereo not shown) [BEMT, bis-ethylhexyloxyphenol methoxyphenyl triazine] |
| – | – | – | – | – | – | – | – | – | – | – | 1.4 | 1.5 | butyl methoxydibenzoylmethane [BMDBM] |
